The values that follow come from patent US20100297017A1, “Method for Synthesizing and Using Pegylated Peptide-Photoactive Chromophore Conjugates and Micellular Formulations Thereof” (priority 2008, published 2010).

Read-outs that look alike come from different tables or passages of the source.

A short description of series [1]: Solubility in aqueous solutions. An excerpt: Therefore, two different approaches for modifying the sPPp conjugate were investigated to improve its in vivo targetability.
In series [2] the test system is EGFR-overexpressing A-431 tumor xenograft. Description: Tumor growth delay photodynamic therapy (PDT) studies, single and repeat treatment (Example 4, FIGS. 4 and 5). Type of series: in vivo, athymic NCr nu/nu mice. To be noted: single PDT, 60 nmole PPa content per 20 g, 100 J/cm^2 at ~16 hours post-injection.
Description: All formulations were administered at a dosage equivalent to 60 nmole PPa content per 20 gram body weight in a 200 μl bolus injection via the tail vein (or via retro-orbital injection when tail vein injections were not feasible). A 670 nm diode laser light dose of 100 J/cm^2, delivered at ˜50 mW/cm^2, was given at ˜16 hours post-injection over an area covering the entire tumor surface as well as a 2 to 3 mm border extending beyond the edge of the tumor. The tumor model was the EGFR-overexpressing A-431 tumor xenograft grown in athymic NCr nu/nu mice (5-week old mice from the National Cancer Institute at Frederick, Md.). Data series were plotted so that the time at which each tumor reached ˜150 mm^3 corresponds to 0 days; i.e., the approximate time at which the PDT light dose was administered.
Control experiments were also performed, which included injecting mice with the sPPp formulations but not exposing them to light.
Series [3] deals with A-431 human tumor xenografts. Description: Preliminary tumor growth delay studies after phototherapy (Example 3, FIG. 3). Type of series: in vivo, mice. The method, then:
Mice were implanted with A-431 tumor xenografts and were administered phototherapy when their tumor sizes reached approximately 150 mm^3. Tumors were then regularly measured to determine the time it took for the tumors to reach four times their initial treatment size. To allow for easier comparisons, tumor growth delay data sets have been aligned so that the 0-day time point corresponds to a tumor volume of 150 mm^3. Diamond, control mice (no PPa or sPPp conjugate; no light), lumped data set, n=6. Squares, mice treated with 60 nmoles surfactant-solubilized free PPa in 2% ethanol/1% TWEEN 80/PBS for a ˜16 hour incubation and treated with 100 J/(cm*cm) light, n=4. Triangles, mice treated with 60 nmoles partially PEG2(20 kDa)ylated (˜63 molar %) sPPp conjugate in PBS for a ˜16 hour incubation and treated with 500 J/(cm*cm) light, n=3.
Preliminary tumor growth delay studies comparing the in vivo phototherapeutic effects of the partially PEG2(20 kDa)ylated sPPp conjugate to the gold standard surfactant-solubilized free PPa solution are shown in FIG. 3. A-431 human tumor xenografts were grown in mice as previously described, and when tumors reached ˜150 mm^3, mice were injected via the tail vein or retro-orbitally with 60 to 80 nmoles PPa content in a bolus volume of approximately 200 microliters. Sixteen hours post-injection, the entire tumor surface along with a 1-2 mm margin of skin around the tumor edge was uniformly irradiated with the expanded beam of a 670 nm laser at an incident fluence rate of ˜50 mW/cm^2. Six mice that received no injections and no irradiations served as a control group. Tumor growth delays resulting from the tumoricidal effects of the phototherapeutic treatments were determined with respect to the control group. For control mice, it took roughly 8.1 days for tumors to quadruple in size from 150 mm^3 to 600 mm^3, and for mice treated with 60 nmoles surfactant-solubilized free PPa and 100 J/cm^2 light, it took only slightly longer, 12.6±2.4 days (i.e., a tumor growth delay of ˜4.5 days compared to the control group). […]

In series [4] the test system is A-431 human epidermoid carcinoma tumor xenografts. The series is described as follows: Time-coursed fluorescence imaging in tumor xenograft model with ROI analysis. The class given is in vivo, athymic nude mice.
Description: ROI measurements were done using ImageJ software (Rasband 1997-2007). For FIGS. 2A and 2B, image exposure times were 0.65 seconds, whereas image exposure times in FIG. 2C were 4 seconds in order to compensate for the smaller injected dosage of PPa content.
To assess the in vivo delivery characteristics of sPPp conjugate formulations, time-coursed fluorescence imaging studies were performed in a tumor xenograft model grown in athymic nude mice. Tumor xenografts were grown subcutaneously in the left upper chest region using the A-431 human epidermoid carcinoma cell line (American Type Culture Collection, Manassas, Va.), which is ideal for EGFR-targeting studies given that these cells overexpress ˜1×10^6-2.6×10^6 EGFR/cell (Haigler, et al. (1978) Proc. Natl. Acad. Sci. USA 75:3317-21; Mendelsohn (1997) Clin. Cancer Res. 3:2703-7). When tumor sizes reached greater than ˜100 mm^3, mice were imaged pre-injection, and then free PPa or sPPp conjugate formulations that had been sterile filtered through a 0.2 micron membrane were injected via tail vein or retro-orbitally at dosages ranging from ˜10 to ˜80 nmoles PPa content per mouse (mice weighed ˜20 g) in a single bolus volume of approximately 200 microliters. A series of post-injection images were then taken over a period of time until mouse fluorescence levels approached pre-injection baseline levels. Images were acquired of the ventral surface of the animals using a custom built surface-weighted fluorescence imager with a 670 nm laser for excitation and a 685 nm long-pass emission filter for detection (Pogue, et al. (2004) Technol. Cancer Res. Treat. 3:15-21). […]
As a quantitative measure of the tumor contrast generated by the surfactant-solubilized free PPa solution and the different sPPp conjugate formulations, region of interest (ROI) mean pixel values of the tumor area and control adjacent chest area were measured from the imaging data sets.
Setting [5] is: 60 nmoles, 100 J/cm^2 light, 16 hours post-injection.

As to `C=CC1=C(C)c2cc3[nH]c(c4c5nc(cc6[nH]c(cc1n2)c(C)c6CC)C(C)=C5C(=O)C4)C(CCC(=O)NC(CC(=O)O)C(=O)NCCCCC(N)C(=O)NCCOCCOCCOCCOCCOCCOCCOCCOCCOCCOCCOCCOCCC(=O)NCCOCCOCCOCCOCCOCCOCCOCCOCCOCCOCCOCCOCCC(N)=O)C3C` (stereo not drawn) [sPPp], the “solubility in aqueous solutions” value in series [1] was “highly soluble and readily dissolved in aqueous solutions”.

pyropheophorbide-a [free PPa]: the “delay in tumor growth compared to untreated control mice” value in series [2] was “no significant delay in tumor growth”. Moreover, in series [3] (setting [5]), the “time for tumors to quadruple in size from 150 mm^3 to 600 mm^3” value amounted to 12.6 ± 2.4 days and the “tumor growth delay compared to the control group” value is on record as about 4.5 days. Moreover, the lethality result in series [3] (irradiations performed immediately after injection) is “very high incidence of lethality”. For the same compound, the “peak tumor area to adjacent chest area mean pixel value ratio (tumor contrast)” value in series [4] (60 nmoles PPa in 2% ethanol/1% TWEEN 80/PBS, at ~16 hours post-injection, FIG. 2A) is recorded as about 1.5. Moreover, in series [4] (A-431 tumor-bearing mice, single bolus injection, fluorescence imaging), the “clearance from the circulation” value is recorded as “cleared very rapidly from the circulation via the hepatobiliary system”. For the same compound, the “tumor fluorescence at time of peak tumor contrast” value in series [4] (FIG. 2) was “already approaching pre-injection fluorescence levels”. Further, the “solubility in aqueous solutions” value in series [1] (aqueous solutions) is reported as “required potentially harmful solubilizers to prevent the formation of large insoluble aggregates”.
